Assays:
[1] = system: Microtubule-associated protein 2 (MAP2); assay: Ex.3 neuroprotective HIE rat model: MAP2 staining; format: in vivo; details: PND14
Protocol: The brain sections were processed for immunohistochemical detection of neuronal cytoskeletal disruption. For antigen retrieval, the sections were heated in 10 mmol/L citrate buffer (pH 6.0) at 100° C. for 10 minutes. Endogenous peroxidase activity was blocked with 3% hydrogen peroxide for 10 minutes and after a second blocking with 5% normal goat serum, the sections were incubated with anti-microtubule-associated protein 2 (MAP2) antibody, diluted 1:1000 (mouse monoclonal antibody; Sigma, St. Louis, Mo., US) 1 h at room temperature. After rinsing, biotinylated goat anti-mouse immunoglobulin G (Vector Laboratories, Burlingame, Calif.) was added, and antibody detection was performed with the avidin-biotin complex method (Vector Laboratories), with 3,3′-diaminobenzidine (DAB) as the chromogen. Following the reaction with DAB, the slides were washed, dehydrated, and coverslipped.
Samples were analyzed with the aid of an image scanner (Nanozoomer Virtual Microscopy, Hamamatsu, Tokyo, Japan) and the ImageJ software (NIH, US). The MAP2 positive areas in the ipsilateral and contralateral hemispheres were measured. The ratio of the MAP2 positive areas was calculated as the MAP2 positive area of the ipsilateral hemisphere divided by the MAP2 positive area of the contralateral hemisphere. The ratio of the MAP2 positive area in the Sham group was considered by default as 1.0.
Newborn rat pups were assigned to one of the following 6 groups from postnatal day 4: Sham group (n=24), Vehicle group (n=14), E4 1 mg/kg/per day group (n=11), E4 5 mg/kg/per day group (n=14), E4 10 mg/kg/per day group (n=14), or E4 50 mg/kg/per day group (n=19). From postnatal day 4, rat pups were intraperitoneally injected either vehicle (Vehicle group) or E4 (1, 5, 10, or 50 mg/kg/per day in accordance to the E4 group assignment) or neither vehicle nor E4 (Sham group). At day 7, 30 minutes after last injection, animals were anesthetized with isoflurane (induction, 3.0%; maintenance, 1.5%), and the rat pups from Vehicle and E4 groups passed through surgery encompassing left common carotid artery double ligation and cut. After the procedure, the pups were returned to their dams and were allowed to recover for 1 hour. The pups were then placed in the humidified hypoxic in vivo cabinet (CoyLab, Grass Lake, Mich., USA). Hypoxia was produced by the inhalation of 11%-8% of oxygen balanced by nitrogen at decreased concentration of oxygen for 20 minutes, followed by inhalation of 8% oxygen and 92% nitrogen at constant concentration for 35 minutes. All the manipulations were performed at 37° C. The Sham group went through similar procedures without left common carotid artery ligation followed by hypoxia nor injection. […]

O4-positive cells = assay: Ex.6 IL-1β induced diffuse white matter injury mouse model: pre-oligodendrocyte maturation gene expression (qRT-PCR); format: in vivo; details: P5
Protocol: Experimental protocols were approved by the institutional guidelines of the Institut National de la Santé et de la Recherche Scientifique (Inserm, France), and met the guidelines for the United States Public Health Service's Policy on Humane Care and Use of Laboratory Animals (NIH, Bethesda, Md., USA). Experiments were performed using OF1 strain mice purchased from Charles River (L'Arbresle, France) and born in our animal facility. Animals were housed under a 12 h light-dark cycle, had access to food and water ad libitum. Sex was determined at birth and confirmed at sacrifice. To avoid any potential variability linked to sex to differences. only male pups were used. […]
Preparation of samples for quantitative reverse-transcriptase polymerase-chain reaction (qRT-PCR), primer design, and PCR protocol, were similar to that previously described (Favrais et al., 2011; Chhor et al., 2013). […] RNA quality and concentration were assessed by spectrophotometry with the Nanodrop™ apparatus (Thermoscientific, Wilmington, Del., USA). […] The relative quantities are expressed as the specific ratio between the gene of interest and Rpl13 or GAPDH. The data are presented as relative mRNA units with respect to control values (expressed as a fold-difference with respect to the mean of sham values).

## C[C@]12CC[C@@H]3c4ccc(O)cc4CC[C@H]3[C@@H]1[C@@H](O)[C@@H](O)[C@@H]2O [E4, 1,3,5(10)-estratrien-3,15α,16α,17β-tetrol]
[1]; 1 mg/kg E4 ip PND4-7 before HI
  ratio of MAP2-positive area (ipsilateral/contralateral): 0.929±0.019
[1]; 5 mg/kg E4 ip PND4-7 before HI
  ratio of MAP2-positive area (ipsilateral/contralateral): 0.889±0.063
[1]; 10 mg/kg E4 ip PND4-7 before HI
  ratio of MAP2-positive area (ipsilateral/contralateral): 0.898±0.022
[1]; 50 mg/kg E4 ip PND4-7 before HI
  ratio of MAP2-positive area (ipsilateral/contralateral): 0.922±0.031
O4-positive cells; 5 mg/kg and 10 mg/kg E4 co-treatment
  IL-1β-induced up-regulation in ID2 expression: prevented
O4-positive cells; IL-1β+E4 5 mg/kg, vs IL-1β alone
  expression of Hey2: trend to up-regulation

— patent US9808470B2, “Estrogenic components for use in the treatment of neurological disorders” (UNIVERSITE DE LIEGE, priority 2012, dated 2017)
